Measurements from patent US20120264611A1, “Pesticide Preparations Containing Derivatives Of Pyrrolidone-4-Carboxylic Acid” (CLARIANT FINANCE (BVI) LIMITED, priority 2009, published 2012).

Experiments:
[1] = test system: tomato plants (cv. Astona F1); assay: Determination of phytotoxicity on tomato plants (auxiliaries sprayed without pesticide); format: in vivo
Procedure: The phytotoxicity is determined on tomato plants (cv. Astona F1), a species which, as is known, is sensitive to phytotoxic substances taken up via the leaf surface (“Phototoxicity of different classes of adjuvants”, H. de Ruiter, et al., Proceedings Fifth International Symposium on Adjuvants for Agrochemicals, 1998, Ed. P. McMullan, pp. 204-209).
Tomato plants (cv. Astona F1) are cultivated in a greenhouse under 14-hour light irradiation at a temperature of 18/12 (±0.5)° C. (day/night) and a relative atmospheric humidity of 70/80 (±5) % (day/night). 12 days after germination, the seedlings are transplanted into plastic pots having a diameter of 11 cm (one plant per pot) filled with a mixture of sand and soil (Soil No. 12, Colent b.v., Lent, the Netherlands) in a volume ratio of sand:soil=1:2.
The pots are placed on a subirrigation mat which was moistened daily with a nutrient solution of medium strength.
28 days after sowing, the plants were treated at the 4-leaf stage, each plant having a height of 15-17 cm. The auxiliary content of the spray solution was 0.5% (v/v or % by volume).
The spray solutions are applied to the plants using an air pressure-operated laboratory sprayer such that the resulting application rate is 200 l/ha.
The treated plants are scored visually after 2 and 8 days (DAT; DAT: days after treatment) and evaluated using a qualitative scale (1 to 5). Here, 1=no discoloration or necrosis of the leaves to 5=complete necrosis of the treated leaf surface. Moreover, the above-ground plant mass is determined after 8 days (fresh weight). In each case, the average is calculated, based on the number of treated plants.

[2] = test system: Wild oats (Avena fatua, AVEFA); assay: Increase of the biological activity of glyphosate by adjuvants, greenhouse trial (tank mix method); format: in vivo; conditions: 21 days
Source text: Here, 50% strength solutions are used. In the case of compound 1, triethanolamine is additionally added to dissolve the acid.
By mixing these tank mix solutions with a commercial aqueous solution of glyphosate isopropylammonium (comprising 62% by weight of the active compound glyphosate IPA salt; IPA: isopropylammonium) and further addition of water, a preparation according to the invention is formed. The ratio of glyphosate (based on the acid equivalent) to adjuvant corresponds to that which is also found in commercially available glyphosate formulations.
For easier monitoring of the adjuvant effects, reduced doses of glyphosate are used; the application rate is 135.2 g a.e./ha glyphosate IPA salt (corresponding to 4.0 mmol or 0.68 g a.e./l at a liquid volume of 200 l/ha). The abbreviation “a.e.” means “acid equivalent”.
The spray solutions comprise the following concentrations of adjuvant: 0.0141% (v/v).
Wild oats (Avena fatua, AVEFA) are cultivated in a greenhouse under 14 hours of light irradiation at a temperature of 18/12 (±0.5)° C. (day/night) and a relative atmospheric humidity of 70/80 (±5) % (day/night). Light is introduced via high-pressure mercury lamps and fluorescent tubes, resulting in a power of 70 W/m^2 (PAR; PAR: photosynthetically active radiation (400-700 nm)) on the leaf level. The plants are cultivated in plastic pots having a diameter of 11 cm, filled with a mixture of sand and soil (Soil No. 12, Colent b.v., Lent, the Netherlands) in a volume ratio of sand:soil=1:2.
The pots are placed on a subirrigation mat which is moistened daily with a nutrient solution of medium strength. After emergence, the AVEFA seedlings are divided into six plants per pot for the activity tests.
The spray solutions are used to carry out greenhouse trials. The effect of the adjuvants on the efficacy of glyphosate is tested.
The spray solutions are applied to the plants using an air pressure-operated laboratory sprayer, such that an application rate of 200 l/ha results.
Wild oats (AVEFA) are treated once they have reached the 2-3 leaf stage.
The efficacy of the herbicide is assessed after 21 days. To this end, the mass of the remaining above-ground plant parts (fresh weight (FW) in gram) is determined. This is shown in table 3, together with the calculated relative residual amount, compared to the untreated plant (in % by weight).

Structure (SMILES)	Visual evaluation (DAT 2) ([1]; 2 days after treatment, qualitative scale 1 (no discoloration or necrosis of the leaves) to 5 (complete necrosis of treated leaf surface), average, auxiliary 0.5% (v/v), 200 l/ha, no pesticide)	Visual evaluation (DAT 8) ([1]; 8 days after treatment, qualitative scale 1 (no discoloration or necrosis of the leaves) to 5 (complete necrosis of treated leaf surface), average, auxiliary 0.5% (v/v), 200 l/ha, no pesticide)	Fresh weight ([1]; above-ground plant mass after 8 days, average, auxiliary 0.5% (v/v), 200 l/ha, untreated 8.6 g) [g]	Mass of the plants formed compared to the untreated plant (in words) ([1]; summary of table 2, after 8 days)	Phytotoxic reaction of the tomato plants (in words) ([1]; summary of table 2, auxiliary 0.5% (v/v))	Test 1, fresh weight of remaining above-ground plant parts ([2]; glyphosate IPA salt 135.2 g a.e./ha, adjuvant 0.0141% (v/v), 200 l/ha, untreated 11.26) [g FW]	Mean of tests 1 and 2 ([2]; glyphosate IPA salt 135.2 g a.e./ha, adjuvant 0.0141% (v/v), 200 l/ha, untreated 12.97) [g FW]	Test 2, fresh weight of remaining above-ground plant parts ([2]; glyphosate IPA salt 135.2 g a.e./ha, adjuvant 0.0141% (v/v), 200 l/ha, untreated 14.67) [g FW]	Residual amount ([2]; calculated relative residual amount compared to the untreated plant (100)) [% by weight]
CCCCCCCC/C=C\CCCCCCCCN1CC(C(=O)O)CC1=O (stereo not drawn) [Compound 1, N-oleyl-2-pyrrolidone-4-carboxylic acid]	1.1	1.5	8.6	not reduced	at most minimal signs of a phytotoxic reaction				
O=C(O)CNCP(=O)(O)O [Glyphosate, no adjuvant added, glyphosate isopropylammonium]						9.63	11.54	13.45	89
